Reference: patent publication US9308210B2, “Method for modulating canonical Wnt pathway using folate and inositol” (University of South Florida, priority 2009, dated 2016)

Columns and labels:
[1] = test system: HTR-8/SVneo cells; assay: In vitro wound assay of human trophoblast cell migration; type: cell-based; conditions: HCy exposure experiments; scrape wound
Source text: In previous studies by the inventors analyzing the effects of lithium and the metabolite homocysteine (HCy) on early heart development, the results were similar. Both factors inhibited Wnt/β-catenin-mediated gene expression during induction stages of cardiogenesis. […] Folate protects the embryo from these adverse effects (Han et al., 2009). It was also noted that normal placental development was adversely affected by Li and HCy. A human trophoblast cell line, HTR-8/SVneo cells, was used to determine whether Li or HCy affect the migration of these cells in vitro and whether FA or FA/myo-inositol would protect the cells from adverse effects of the two cardiac teratogens. HCy exposure experiments were conducted. […] The wound edges are depicted by a white line in B. In panel A, it can be seen that the wound area is smaller. Administration of a combination of FA/myo-inositol, FA alone or myo-inositol alone, enhanced the expression of NMHC-IIB and FN to facilitate cell migration.

[2] = test system: wound area of mouse dorsum; assay: Mouse 3-mm excisional wound model with topical creams (FN, β-catenin, Lgr6 localization); type: in vivo; conditions: higher folate diet 10 mg/kg from one week prior to wounding
Source text: For the mouse studies the animals were divided by random assignment into experimental groups, using both sexes. Folic acid and folic acid/myo-inositol in combination were topically administered to the wound directly with an inert vanishing cream (provided by Carrollwood Pharmacy) as the vehicle of administration or also in combination with an orally administered dietary folic acid supplement. […] The creams contained (i) FA only; two doses of […] combination of higher MI to FA ratio, (iii) a combination of lower MI to FA ratio, (iv) MI only and (v) vehicle control cream. […] The control animals were maintained on normal animal chow containing 3.3 mg/kg FA to maintain health of the animals. After wounding, animals were housed separately and maintained on their respective folate diets. The animals were maintained in cages that were wood chip free on a dust free base for the first several days, to prevent bedding and bedding dust from getting into the freshly made wounds to lessen chances of infection. The animals were anesthetized using isoflurane inhalation. One 3-mm excisional circular wound was made using a dermal biopsy punch, followed by application of the experimental or control topical cream on the wound. The excised area remained uncovered and healing was closely monitored daily until wound was closed. At day 15 after wounding, the animal was euthanized. […]

`Nc1nc2ncc(CNc3ccc(C(=O)N[C@@H](CCC(=O)O)C(=O)O)cc3)nc2c(=O)[nH]1` [FA, folic acid] was tested, and the “expression of NMHC-IIB and FN” value [1] was “enhanced” and the “healing with dietary supplementation” value [2] was “no differences in healing”.
